# Measured values taken from BindingDB's records for doi:10.7270/Q2DF6PMF (Nmmlsc, 2007).
# Target: T1, N-formyl peptide receptor 2 (Homo sapiens, UniProt P25090)
# T1 sequence (P25090 whole entry): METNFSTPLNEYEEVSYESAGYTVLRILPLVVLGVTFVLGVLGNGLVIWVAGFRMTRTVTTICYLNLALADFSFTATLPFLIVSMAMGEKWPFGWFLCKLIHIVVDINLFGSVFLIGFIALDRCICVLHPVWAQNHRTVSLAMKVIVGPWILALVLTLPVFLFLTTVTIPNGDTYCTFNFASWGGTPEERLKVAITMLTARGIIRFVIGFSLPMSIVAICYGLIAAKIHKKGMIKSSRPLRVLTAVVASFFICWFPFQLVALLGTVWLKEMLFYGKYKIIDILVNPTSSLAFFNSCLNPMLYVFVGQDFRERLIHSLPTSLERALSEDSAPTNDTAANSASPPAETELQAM
# Assay: concentration-dependent FPRL1 ligand displacement – cell-based, FPR counter-screen, fluorescent ligand, dose response (AID 520)
SMILES,IC50 [µM],Ki [µM]
O=C(NCc1cccnc1)C1c2ccccc2C(=O)N1C1CCCCCC1 (stereo not given) [2-cycloheptyl-3-keto-N-(3-pyridylmethyl)isoindoline-1-carboxamide],> 66.7,–
O=C(NCc1cccnc1)C1c2ccccc2C(=O)N1C1CCCCCCC1 (stereo not given) [2-cyclooctyl-3-keto-N-(3-pyridylmethyl)isoindoline-1-carboxamide],> 66.7,–
"CCC(CC)C(=O)Nc1c2cnn(-c3ccccc3)c2nc(=O)n1-c1ccccc1 [2-ethyl-N-(6-keto-1,5-diphenyl-pyrazolo[3,4-d]pyrimidin-4-yl)butyramide]",> 66.7,–
CCOc1ccccc1Oc1c(C)oc2cc(OC(=O)c3ccco3)ccc2c1=O [2-furancarboxylic acid [3-(2-ethoxyphenoxy)-2-methyl-4-oxo-1-benzopyran-7-yl] ester],> 66.7,–
COc1ccccc1Oc1c(C)oc2cc(OC(=O)c3ccco3)ccc2c1=O [2-furancarboxylic acid [3-(2-methoxyphenoxy)-2-methyl-4-oxo-1-benzopyran-7-yl] ester],> 66.7,–
"CC(C)(C)CC(=O)Nc1ccc(Nc2ccccc2)cc1 [3,3-dimethyl-N-(4-phenylazanylphenyl)butanamide]",> 66.7,–
"CCCCc1c(O)n(-c2ccccc2)n(-c2ccccc2)c1=O [3,5-Dioxo-1,2-diphenyl-4-n-butylpyrazolidine]",> 66.7,> 40.3
"COc1cccc(C2C(C(=O)c3cc4ccccc4o3)C(=O)C(=O)N2c2cc(C)on2)c1OC (stereo not given) [3-(1-benzofuran-2-carbonyl)-2-(2,3-dimethoxyphenyl)-4-hydroxy-1-(5-methyl-1,2-oxazol-3-yl)-2H-pyrrol-5-one]",> 66.7,> 40.3
"COc1ccc(OC)c(C2C(C(=O)c3cc4ccccc4o3)C(=O)C(=O)N2c2cc(C)on2)c1 (stereo not given) [3-(1-benzofuran-2-carbonyl)-2-(2,5-dimethoxyphenyl)-4-hydroxy-1-(5-methyl-1,2-oxazol-3-yl)-2H-pyrrol-5-one]",> 66.7,> 40.3
O=C1C(=O)N(CCCN2CCOCC2)C(c2ccccn2)C1C(=O)c1cc2ccccc2o1 (stereo not given) [3-(1-benzofuran-2-carbonyl)-4-hydroxy-1-(3-morpholin-4-ylpropyl)-2-pyridin-2-yl-2H-pyrrol-5-one],> 66.7,> 40.3
"Cc1ccc(C2C(C(=O)c3sc(C)nc3C)C(=O)C(=O)N2CCN2CCOCC2)o1 (stereo not given) [3-(2,4-dimethyl-1,3-thiazole-5-carbonyl)-4-hydroxy-2-(5-methylfuran-2-yl)-1-(2-morpholin-4-ylethyl)-2H-pyrrol-5-one]",> 66.7,> 40.3
"Cc1csc(NC(=O)CCn2c(=O)oc3ccccc32)n1 [3-(2-keto-1,3-benzoxazol-3-yl)-N-(4-methylthiazol-2-yl)propionamide]",> 66.7,–
"Cc1oc2cc(O)cc(O)c2c(=O)c1-c1ccc2c(c1)OCCCO2 [3-(3,4-dihydro-2H-1,5-benzodioxepin-7-yl)-2-methyl-5,7-bis(oxidanyl)chromen-4-one]",> 66.7,–
"COc1ccc(-c2c(C)oc3c(CN4CCN(CCO)CC4)c(O)ccc3c2=O)cc1OC [3-(3,4-dimethoxyphenyl)-7-hydroxy-8-[[4-(2-hydroxyethyl)-1-piperazinyl]methyl]-2-methyl-1-benzopyran-4-one]",> 66.7,–
CCC(CCC(=O)Nc1cccc(C(=O)O)c1)C(=O)O (stereo not given) [3-(4-carboxyhexanoylamino)benzoic acid],> 66.7,–
"Fc1ccc(-c2nnc3ccc(N4CCCC4)nn23)cc1 [3-(4-fluorophenyl)-6-(1-pyrrolidinyl)-[1,2,4]triazolo[4,3-b]pyridazine]",> 66.7,–
"COc1ccc(-c2nc(-c3ccc(Br)o3)no2)cc1OC [3-(5-bromanylfuran-2-yl)-5-(3,4-dimethoxyphenyl)-1,2,4-oxadiazole]",> 66.7,–
CCCOc1ccc(C2C(C(=O)c3ccc(C)o3)C(=O)C(=O)N2Cc2cccnc2)cc1 (stereo not given) [3-(5-methylfuran-2-yl)carbonyl-4-oxidanyl-2-(4-propoxyphenyl)-1-(pyridin-3-ylmethyl)-2H-pyrrol-5-one],> 66.7,> 40.3
COCCN1C(=O)C(=O)C(C(=O)c2ccco2)C1c1cccc(Oc2ccccc2)c1 (stereo not given) [3-(furan-2-carbonyl)-4-hydroxy-1-(2-methoxyethyl)-2-(3-phenoxyphenyl)-2H-pyrrol-5-one],> 66.7,> 40.3
C=CCOc1cccc(C2C(C(=O)c3ccco3)C(=O)C(=O)N2CCN2CCOCC2)c1 (stereo not given) [3-(furan-2-carbonyl)-4-hydroxy-1-(2-morpholin-4-ylethyl)-2-(3-prop-2-enoxyphenyl)-2H-pyrrol-5-one],> 66.7,> 40.3
O=C1C(=O)N(CCc2ccccc2)C(c2cccnc2)C1C(=O)c1ccco1 (stereo not given) [3-(furan-2-carbonyl)-4-hydroxy-1-(2-phenylethyl)-2-pyridin-3-yl-2H-pyrrol-5-one],> 66.7,> 40.3

SMILES,IC50 [µM],Ki [µM]
CCCOc1ccc(C2C(C(=O)c3ccco3)C(=O)C(=O)N2CCCn2ccnc2)cc1 (stereo not given) [3-(furan-2-carbonyl)-4-hydroxy-1-(3-imidazol-1-ylpropyl)-2-(4-propoxyphenyl)-2H-pyrrol-5-one],> 66.7,> 40.3
COCCCN1C(=O)C(=O)C(C(=O)c2ccco2)C1c1ccccc1 (stereo not given) [3-(furan-2-carbonyl)-4-hydroxy-1-(3-methoxypropyl)-2-phenyl-2H-pyrrol-5-one],> 66.7,> 40.3
"Cc1cc(N2C(=O)C(=O)C(C(=O)c3ccco3)C2c2cccnc2)no1 (stereo not given) [3-(furan-2-carbonyl)-4-hydroxy-1-(5-methyl-1,2-oxazol-3-yl)-2-pyridin-3-yl-2H-pyrrol-5-one]",> 66.7,> 40.3
O=C1C(=O)N(CC2CCCO2)C(c2cccnc2)C1C(=O)c1ccco1 (stereo not given) [3-(furan-2-carbonyl)-4-hydroxy-1-(oxolan-2-ylmethyl)-2-pyridin-3-yl-2H-pyrrol-5-one],> 66.7,> 40.3
COCc1cc(C2C(C(=O)c3ccco3)C(=O)C(=O)N2CCOCCO)ccc1O (stereo not given) [3-(furan-2-carbonyl)-4-hydroxy-1-[2-(2-hydroxyethoxy)ethyl]-2-[4-hydroxy-3-(methoxymethyl)phenyl]-2H-pyrrol-5-one],> 66.7,> 40.3
COc1cc(C2C(C(=O)c3ccco3)C(=O)C(=O)N2CCc2ccccc2)ccc1O (stereo not given) [3-(furan-2-carbonyl)-4-hydroxy-2-(4-hydroxy-3-methoxyphenyl)-1-(2-phenylethyl)-2H-pyrrol-5-one],> 66.7,> 40.3
C=CCOc1ccc(C2C(C(=O)c3ccco3)C(=O)C(=O)N2Cc2cccnc2)cc1 (stereo not given) [3-(furan-2-carbonyl)-4-hydroxy-2-(4-prop-2-enoxyphenyl)-1-(pyridin-3-ylmethyl)-2H-pyrrol-5-one],> 66.7,> 40.3
"O=C(Cn1c(=O)oc2ccccc21)N1CCN(c2ccccc2)CC1 [3-[2-keto-2-(4-phenylpiperazino)ethyl]-1,3-benzoxazol-2-one]",> 66.7,–
"Cc1nc2c(-c3ccc(F)cc3)c(C)nn2c(C)c1CCC(=O)NC(C)CCc1ccco1 (stereo not given) [3-[3-(4-fluorophenyl)-2,5,7-trimethyl-6-pyrazolo[1,5-a]pyrimidinyl]-N-[4-(2-furanyl)butan-2-yl]propanamide]",> 66.7,–
CCOC(=O)CCn1nc(-c2ccc(Cl)cc2)cc1N [3-[5-amino-3-(4-chlorophenyl)-1-pyrazolyl]propanoic acid ethyl ester],> 66.7,–
Cc1ccccc1Nc1cc2ccccc2c(O)n1 [3-[(2-methylphenyl)amino]-2H-isoquinolin-1-one],> 66.7,–
Cc1ccc(Nc2ccc(C(=O)O)cc2N)cc1 [3-amino-4-(4-methylanilino)benzoic acid],> 66.7,–
"COc1ccc2ccccc2c1C1CC(=O)N2CN(C3CCCCC3)CSC2=C1C#N (stereo not given) [3-cyclohexyl-8-(2-methoxynaphthalen-1-yl)-6-oxo-2,4,7,8-tetrahydropyrido[2,1-b][1,3,5]thiadiazine-9-carbonitrile]",> 66.7,–
O=C1CCCC(=O)C1C(C#Cc1ccccc1)C1C(=O)CCCC1=O [3-hydroxy-2-[1-(2-hydroxy-6-keto-cyclohexen-1-yl)-3-phenyl-prop-2-ynyl]cyclohex-2-en-1-one],> 66.7,> 40.3
"Cc1c(C(=O)NC2CCCc3ccccc32)oc2ccc(S(=O)(=O)N3CCOCC3)cc12 (stereo not given) [3-methyl-5-(4-morpholinylsulfonyl)-N-(1,2,3,4-tetrahydronaphthalen-1-yl)-2-benzofurancarboxamide]",> 66.7,–
"O=C(Nc1nnc(-c2ccccc2Cl)o1)c1ccc(S(=O)(=O)N2CCCCCC2)cc1 [4-(1-azepanylsulfonyl)-N-[5-(2-chlorophenyl)-1,3,4-oxadiazol-2-yl]benzamide]",> 66.7,–
"CC1Oc2ccccc2N(Cc2ccccc2Cl)C1=O (stereo not given) [4-(2-Chloro-benzyl)-2-methyl-4H-benzo[1,4]oxazin-3-one]",> 66.7,–
"COc1ccc(-c2cc(C(F)(F)F)nc(N3CCCCC3)n2)cc1OC [4-(3,4-dimethoxyphenyl)-2-(1-piperidinyl)-6-(trifluoromethyl)pyrimidine]",> 66.7,–
"COc1ccc(-c2cc(C(F)(F)F)nc(N3CCN(c4ccccc4)CC3)n2)cc1OC [4-(3,4-dimethoxyphenyl)-2-(4-phenyl-1-piperazinyl)-6-(trifluoromethyl)pyrimidine]",> 66.7,–
CCOC(=O)c1ccc(NC(=O)Nc2ccc3c4c(cccc24)C(=O)N3CC)cc1 [4-[(1-ethyl-2-keto-benzo[cd]indol-6-yl)carbamoylamino]benzoic acid ethyl ester],> 66.7,–
"COC(=O)c1ccc(C2C(C(=O)c3ccc(OC)cc3)C(=O)C(=O)N2Cc2ccco2)cc1 (stereo not given) [4-[(3Z)-1-(2-furanylmethyl)-3-[hydroxy-(4-methoxyphenyl)methylidene]-4,5-dioxo-2-pyrrolidinyl]benzoic acid methyl ester]",> 66.7,> 40.3
